In the Biogen ADME set (Fang et al. 2023):
Converted amounts (≈) assume the structure as drawn.

Settings: for aqueous solubility: pH 6.8

Structure (SMILES)	MDR1-MDCK efflux ratio	intrinsic clearance, human liver microsomes [mL/min/kg]	intrinsic clearance, rat liver microsomes [mL/min/kg]	aqueous solubility [µg/mL]	fraction unbound, human plasma	fraction unbound, rat plasma
Cc1cc(C(=O)N(C)C2CCSCC2)c(=O)n(C)c1C	39	29.1	56.4	–	–	–
COc1cc2c(cc1OC)-c1cc3ccc(OC)c(OC)c3c[n+]1CC2	22.5	≤ 4.74	23.4	54.1	–	–
Cc1cc(-c2cnn(CCNC(=O)c3sc(C)nc3C)c2C2CC2)on1	5.26	23.8	123	67.1 (≈ 181 µM)	–	–
NS(=O)(=O)N1CCN(Cc2c(F)cccc2N2CCCC2)CC1	1.75	24.2	1280	–	–	–
NC(=O)c1ccc(Oc2ccc(C(=O)N3CCCCCC3)cc2)cc1	4.9	11.4	82.3	59.8 (≈ 177 µM)	–	–
CC(C)c1nnc(CN2CCN(c3nccs3)CC2)o1	0.971	≤ 4.74	122	52.1 (≈ 177 µM)	–	–
CC1CCN([C@H](c2ccc(F)cc2)c2ccc([C@@H](C)C(=O)O)cc2-c2ccc(C(F)(F)F)cc2)CC1	1.99	7.84	17.7	39.5 (≈ 79.1 µM)	–	–
Cc1nc(C)c(C)c(NCc2cc(-c3ccc(F)cc3)no2)n1	0.906	20.3	242	37.5 (≈ 120 µM)	–	–
CN(c1ccccc1)S(=O)(=O)c1csc(C(=O)Nc2ccc(C(=O)O)cc2)c1	–	–	–	80.3 (≈ 193 µM)	–	–
COc1ccc(-c2csc3ncnc(Oc4ccc(C)nc4)c23)cc1	0.595	78.5	320	7.81 (≈ 22.4 µM)	–	–
Cc1cc(C)c(-c2csc(NC(=O)Cn3cnnn3)n2)c(C)c1	7.69	–	–	0.12 (≈ 0.365 µM)	–	–
C#CCN1CCC[C@H]1C(=O)Nc1cnn(-c2ncccn2)c1	3.95	≤ 4.74	83.4	45.1 (≈ 152 µM)	–	–
CC(C)c1ccc(NC(=O)Cn2cnc3c2c(=O)n(C)c(=O)n3C)cc1	–	16.1	195	12.7 (≈ 35.7 µM)	–	–
N#Cc1cccnc1NCCc1ccc(F)cc1	0.519	179	1150	2.69 (≈ 11.1 µM)	–	–
Cc1nc(NCCN2C(=O)CCC2=O)c2c(C)csc2n1	6.04	8.08	158	–	–	–
CN(C)Cc1ccnc(NC(=O)c2ccsc2)c1	–	6.67	397	–	–	–
Cc1ncccc1CNc1nnc(C(C)(C)C)s1	1.28	≤ 4.74	19.3	40.9 (≈ 156 µM)	–	–
Cc1cc(-c2cn(C)nc2[C@H]2CC[C@H](CNC(=O)C(C)C)CC2)on1	30.3	≤ 4.74	268	–	–	–
CCS(=O)(=O)N1CC(CC#N)(n2cc(-c3ncnc4[nH]ccc34)cn2)C1	202	≤ 4.74	19.2	–	0.239	1
C=CC(=O)Nc1cccc(Oc2nc(Nc3ccc(N4CCN(C)CC4)cc3)nc3ccoc23)c1	22	16.2	329	28.6 (≈ 60.8 µM)	0.014	0.00619
Cc1nnc(-c2ccccc2-c2c[nH]nc2C)s1	–	–	–	30.9 (≈ 121 µM)	–	–
Cc1ccc(NC(=O)OC(C)(C)C)c2c1N(C(=O)[C@H]1CCCO1)CCC2	2.91	33.6	377	32.2 (≈ 89.3 µM)	–	–
Cc1nc(C)c2c(C)c(C(=O)N(C)CCN3CCCC3)sc2n1	12.6	≤ 4.74	77.8	60.9 (≈ 183 µM)	–	–
CCC(=O)Nc1sc2c(c1C#N)CCC2	–	156	381	–	–	–
NC(=O)c1ccc(N2CCCCC2)c(NC(=O)c2ncoc2-c2ccc3ccccc3c2)c1	0.519	–	–	0.24 (≈ 0.545 µM)	–	–
CCCn1nccc1NC(=O)c1c(C)noc1C	1.59	≤ 4.74	≤ 10.7	31.5 (≈ 127 µM)	–	–
Oc1ccc(CN2CCN(c3cccc(Cl)c3)CC2)cc1	0.451	33.6	90	2.2 (≈ 7.27 µM)	–	–
CC(C)n1ccc(C(=O)N2CCS(=O)(=O)C(C)(C)C2)n1	2.42	≤ 4.74	33.7	46.4 (≈ 155 µM)	–	–

Next, values leading:

MDR1-MDCK efflux ratio	intrinsic clearance, human liver microsomes [mL/min/kg]	intrinsic clearance, rat liver microsomes [mL/min/kg]	aqueous solubility [µg/mL]	fraction unbound, human plasma	fraction unbound, rat plasma	Structure (SMILES)
0.592	≤ 4.74	11.7	65.2 (≈ 257 µM)	–	–	O=C(NC1CC1)c1cccnc1Oc1ccccc1
25.7	≤ 4.74	28.9	80.4 (≈ 313 µM)	–	–	Cc1nccc(C2CCN(Cc3ncc[nH]3)CC2)n1
2.44	≤ 4.74	≤ 10.7	35.2 (≈ 129 µM)	–	–	CN1CCC(NC(=O)COc2ccc(C#N)cc2)CC1
2.07	≤ 4.74	≤ 10.7	42.9 (≈ 186 µM)	–	–	CCNC(=O)C1CN(c2cccc(C#N)n2)C1
0.374	397	5180	–	–	–	Cc1cccc(NCCc2cc(F)cc3c2OCOC3)n1
0.701	≤ 4.74	28.1	38.4 (≈ 162 µM)	–	–	Nc1ccc2c(c1)ncn2CCc1ccccc1
0.675	51.4	2130	33.7 (≈ 112 µM)	0.133	0.161	Cc1nccc(-c2cn(Cc3ccccc3)c3cnccc23)n1
0.541	39.6	325	12.9 (≈ 46.1 µM)	–	–	COCC1CCN(c2noc(-c3cccs3)n2)CC1
0.515	95.4	1270	–	–	–	COc1ccc(-c2nn(C)c3ccccc23)c(OC)c1OC
–	46.5	143	55 (≈ 222 µM)	–	–	CNCCN1CCC(OCc2ccccc2)CC1
3.06	21.7	619	4.13 (≈ 11.8 µM)	–	–	O=C1CC2(CCN(C(=O)NCc3ccccc3)CC2)Oc2ccccc21
5.72	12.8	322	42.3 (≈ 132 µM)	–	–	O=C(c1cccc(N2CCNC2=O)c1)N1CCc2ccccc2C1
–	123	2600	–	–	–	CN1C(=O)c2ccc(C(=O)N(CC3CCCCC3)C3CC3)cc2C1=O
1.14	38	1510	26.3 (≈ 73.6 µM)	–	–	c1ccc(C(c2ccccc2)c2noc(Cn3cnc(C4CC4)n3)n2)cc1
26.9	205	867	–	–	–	O=C([C@@H]1CCCN1C(=O)NC(c1ccccc1)c1ccccc1)N1CCCCC1
–	≤ 4.74	92.7	–	–	–	CN1C(=O)COc2cc(NC(=O)C3CC=CC3)ccc21
51	10.4	393	21.9 (≈ 58 µM)	–	–	O=C(CN1CCC(n2c(=O)[nH]c3ccccc32)CC1)N1CCc2ccccc21
–	≤ 4.74	20.4	–	–	–	N#Cc1ccccc1CN1C(=O)CCC1=O
2.37	5.78	151	63.1 (≈ 182 µM)	–	–	O=C(c1cccs1)N1C[C@@H]2CCCN(C(=O)c3cccs3)[C@@H]2C1
1.22	76.3	510	–	–	–	Cc1cccc(N2CCN(CCCCNC(=O)c3c(F)cccc3F)CC2)c1
1.08	34	235	11.1 (≈ 37.3 µM)	–	–	OCCCCCn1cc(-c2ccccc2-c2ccco2)nn1
0.647	499	3630	2.1 (≈ 5.36 µM)	–	–	CN(C)c1cccc(C(=O)N2CCCC(c3cccc(-c4cccs4)n3)C2)c1 (centres undefined)
45.8	74.2	279	53 (≈ 162 µM)	–	–	Cc1nn(C)c(C)c1CCC(=O)N1CCN(C)Cc2ccccc21
11.9	423	2100	–	–	–	CCOc1ccc(CNC(=O)Cn2ccc3cc(S(=O)(=O)N4CCCC4)ccc32)cc1
–	–	–	56.6 (≈ 219 µM)	–	–	COc1ccc(CN(C)C(=O)C2(C#N)CCC2)cc1
1.53	228	756	–	0.105	0.083	CNC(=O)C1(Cc2ccc(-c3cccnc3)cc2)CCN(Cc2ccc(F)cc2)C1 (centres undefined)
28.5	50.3	874	59.6 (≈ 133 µM)	–	–	Cc1nc(N)c2c(C(F)(F)F)cc(C3CCN(C(=O)Cc4ccc(F)cc4)CC3)nc2n1
–	≤ 4.74	1850	–	–	–	COc1ccc(NC(=O)CN2CCCC2)cc1
